Test results from US11028051B2, “Tetrahydroquinoline-based bromodomain inhibitors” (St. Jude Children's Research Hospital, priority 2016, dated 2021).

What was measured:
BRD2-BD1 [1] = molecular target: T1, BRD2-BD1 (Homo sapiens (Human), UniProt P25440); experiment: competitive TR-FRET assay, BET-BD with acetylated peptide ligand; type: binding; conditions: for IC50: Table 2, inhibitor potency by TR-FRET; for EC50: Table 6, read-out: EC50 (μM) BRD2(1)
Procedure: (§1) Inhibitor potency was determined using a competitive TR-FRET assay as detailed herein, measuring interaction of the respective BET-BD with an acetylated peptide ligand (Table 2).
Target sequence in this assay (P25440 74-180): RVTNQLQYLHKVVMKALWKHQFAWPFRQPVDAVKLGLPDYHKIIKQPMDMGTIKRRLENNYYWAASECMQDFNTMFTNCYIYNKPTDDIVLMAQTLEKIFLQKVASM

BRD3-BD1 = BRD3-BD1 (Homo sapiens (Human), UniProt Q15059); experiment: as above; type: binding; conditions: for IC50: Table 2, inhibitor potency by TR-FRET; for EC50: Table 6, read-out: EC50 (μM) BRD3(1)
Sequence of BRD3-BD1 (Q15059 34-140): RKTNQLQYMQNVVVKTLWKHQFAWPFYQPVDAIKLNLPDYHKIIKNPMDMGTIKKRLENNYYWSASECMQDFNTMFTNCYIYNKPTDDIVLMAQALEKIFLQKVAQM
Procedure: as §1

BRD4-BD2 = BRD4-BD2 (Homo sapiens (Human), UniProt O60885); experiment: as above; type: binding; conditions: Table 2, inhibitor potency by TR-FRET
Procedure: as §1

BRD2-BD2 [2] = molecular target: T2, BRD2-BD2 (Homo sapiens (Human), UniProt P25440); experiment: as above; type: binding; conditions: for IC50: Table 2, inhibitor potency by TR-FRET; for BD1/BD2: Table 2, ratio BRD2-BD1/BRD2-BD2; for [2(1)/2(2)]: Table 6, ratio of EC50; for EC50: Table 6, read-out: EC50 (μM) BRD2(2)
Procedure: as §1
Target sequence in this assay (P25440 344-453): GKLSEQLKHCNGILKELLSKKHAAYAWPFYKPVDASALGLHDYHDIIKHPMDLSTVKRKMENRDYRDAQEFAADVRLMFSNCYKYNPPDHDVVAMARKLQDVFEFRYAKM

BRD4-BD1 = BRD4-BD1 (Homo sapiens (Human), UniProt O60885); experiment: as above; type: binding; conditions: Table 2, inhibitor potency by TR-FRET
Procedure: as §1

BRD2-BD1 [3] = molecular target: T1, BRD2-BD1; experiment: isothermal titration calorimetry analysis of binding; conditions: ITC; for ΔG / ΔH / −TΔS: BRD2-BD1; for Kd: BRD2-BD1, average of 3 experiments, read-out: average Kd
Procedure: (§2) b. Isothermal Titration Calorimetry Analysis of Binding to Brd2-BD1 and Brd2-BD2
(§3) Binding of compounds to BRD2 was monitored using an ITC200 (Microcal, Piscataway, N.J.). Either Brd2.1 (74-194) or Brd2.2 (348-455) was dialyzed overnight into a solution containing 50 mM HEPES, pH 7.0 and 150 mM NaCl at 15° C. Enzyme concentrations were determined after dialysis by absorbance at 280 nm using a molar extinction coefficient (ε280) of 25,565 M^−1 cm^−1 (2.1) or 16,055 M^−1 cm^−1 (2.2). Enzyme was diluted in dialysis buffer and 39.6 μL was loaded into the syringe. Compounds were dissolved in the same dialysis buffer and loaded in the cell to a volume of 204 μL. Injections were carried out by serial injections of enzyme; first, 1 injection of 1 μL, followed by 19 incremental injections of 2 μL, at 120 second intervals. Data from the first injection was excluded, due to pre-equilibration mixing between the contents of cell and syringe at the syringe tip. Peak areas were integrated, normalized, and then fitted by non-linear regression using the independent sites model in Origin™ (version 2.3.6, Microcal, Piscataway, N.J.).
Target sequence in this assay (P25440 74-194): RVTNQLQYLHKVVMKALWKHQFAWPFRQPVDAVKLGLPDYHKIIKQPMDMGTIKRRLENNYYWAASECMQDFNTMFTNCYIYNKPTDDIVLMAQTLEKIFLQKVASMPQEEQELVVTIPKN

BRD2-BD2 [4] = experiment: as above; conditions: ITC Kd BRD2-BD1 / BRD2-BD2
Procedure: as §2, §3

BRD2-BD2 [5] = molecular target: T2, BRD2-BD2; experiment: as above; conditions: ITC; for ΔG / ΔH / −TΔS: BRD2-BD2; for Kd: BRD2-BD2, average of 3 experiments, read-out: average Kd
Procedure: as §2, §3
Target sequence in this assay (P25440 348-455): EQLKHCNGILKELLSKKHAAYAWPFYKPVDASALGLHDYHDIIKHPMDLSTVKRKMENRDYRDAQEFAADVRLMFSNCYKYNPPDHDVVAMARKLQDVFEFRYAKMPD

BRDT = BRDT (Homo sapiens, UniProt Q58F21); experiment: competitive TR-FRET assay, BET-BD with acetylated peptide ligand; type: binding; conditions: for EC50: Table 6, head names no target, BRDT by comparison with Table 4, read-out: EC50
Procedure: as §1

MV-4-11 = experiment: anti-proliferative activity; type: cell-based; conditions: Homo sapiens, MV4-11; Table 7
Procedure: (§4) After 7 days of treatment, an equal volume of CellTiter-Glo reagent (G7572, Promega) was added and the luminescence signal was measured using an automated Envision plate reader (Perkin-Elmer). Luminescence data were normalized by log10 transformation prior to calculating the percent inhibition using the following equation:
(§5) 100*(negative control mean −compound value)/(negative control mean −positive control mean).

[6] = system: c-Myc expression in HDMB03 cells; experiment: c-Myc expression inhibition, high content microscopy (HCM); type: cell-based, human; conditions: Homo sapiens, HD-MB03, Table 7; read-out: EC50 (μM) Myc-inhibition
HDMB03 cells = experiment: cell viability, CellTiter-Glo; type: cell-based, human; conditions: Homo sapiens, HD-MB03, Table 7; read-out: EC50 (μM) HDMB03
Procedure: Human G3 medulloblastoma or mouse SHH medulloblastoma cells were grown as neurospheres in supplemented neurobasal medium, as previously described (Kawauchi et al., 2012.)
as §4, §5
High-throughput assay data were analyzed using Robust Interpretation of Screening Experiments (RISE) application written in Pipeline Pilot (Accelrys, v. 8.5) and the R program (R Development Core Team).
Dose-response curves were calculated by regressing the median percent inhibition obtained over triplicate experiments to log 10-transformed concentrations. Non-linear regression was then performed using the R drc package with the four parameter log-logistic function (LL2.4) (Ritz and Streibig, 2009). Curves were fit under three different constraints: (1) all parameters free, (2) high response fixed to 100, (3) low response fixed to 0; and the best fit from these three nested models was selected using the anova.drc function.

BRD3(1) = BRD3(1) (Homo sapiens (Human), UniProt Q15059); experiment: BROMOscan KD determination; type: binding; conditions: Table 10
Sequence of BRD3(1) (Q15059 34-140): as the sequence (Q15059 34-140) above
From the text: (§6) DiscoverX® can screen compounds against all ˜42 bromodomains (a service called BROMOscan) and perform follow-up KD determination. This service is considered the industrial standard for bromodomain inhibitor comparisons.

BRD4(1) = BRD4(1) (Homo sapiens (Human), UniProt O60885); experiment: BROMOscan KD determination; type: binding; conditions: Table 10
From the text: as §6

BRD3(2) = BRD3(2) (Homo sapiens (Human), UniProt Q15059); experiment: BROMOscan KD determination; type: binding
Sequence of BRD3(2) (Q15059 306-415): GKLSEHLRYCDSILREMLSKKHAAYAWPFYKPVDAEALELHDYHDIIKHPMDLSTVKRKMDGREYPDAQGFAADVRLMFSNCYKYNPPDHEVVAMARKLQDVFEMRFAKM
From the text: as §6

BRD4(2) = BRD4(2) (Homo sapiens (Human), UniProt O60885); experiment: BROMOscan KD determination; type: binding
From the text: as §6

BRD2(1) = BRD2(1) (Homo sapiens (Human), UniProt P25440); experiment: BROMOscan KD determination; type: binding; conditions: Table 10
Sequence of BRD2(1) (P25440 74-180): as the sequence (P25440 74-180) above
From the text: (§7) DiscoverX® can screen compounds against all ˜42 bromodomains (a service called BROMOscan) and perform follow-up KD determination. This service is considered the industrial standard for bromodomain inhibitor comparisons. […] Dots are symbolic of inhibition of the compound at this concentration; the larger the size of the dot, the greater the activity of the compound. […] Though these compounds are selective for the BET family, the selectivity within the BET family is poor. The results of a competitive binding experiment between compounds 19 (left), 41 (center), and 56 (right) (at a single concentration, 1 μM) and a control for each of the bromodomains are shown in FIG. 5.

BRDT(1) = BRDT(1) (Homo sapiens (Human), UniProt Q58F21); experiment: BROMOscan KD determination; type: binding; conditions: Table 10
From the text: as §7

BRDT(2) = BRDT(2) (Homo sapiens (Human), UniProt Q58F21); experiment: BROMOscan KD determination; type: binding
From the text: as §7

BRD2(2) = BRD2(2) (Homo sapiens (Human), UniProt P25440); experiment: BROMOscan KD determination; type: binding
Sequence of BRD2(2) (P25440 344-453): as the sequence (P25440 344-453) above
From the text: as §7

| Structure (SMILES) | IC50 (BRD2-BD1 [1]) [µM] | IC50 (BRD3-BD1) [µM] | IC50 (BRD4-BD2) [µM] | IC50 (BRD2-BD2 [2]) [µM] | IC50 (BRD4-BD1) [µM] | ΔG (BRD2-BD1 [3]) [kcal/mol] | ΔH (BRD2-BD1 [3]) [kcal/mol] | −TΔS (BRD2-BD1 [3]) [kcal/mol] | Kd (BRD2-BD1 [3]) [µM] | Selectivity (2-1/2-2) (BRD2-BD2 [4]) | ΔG (BRD2-BD2 [5]) [kcal/mol] | ΔH (BRD2-BD2 [5]) [kcal/mol] | EC50 (BRD2-BD1 [1]) [µM] | EC50 (BRDT) [µM] | EC50 (BRD3-BD1) [µM] | [2(1)/2(2)] (BRD2-BD2 [2]) | EC50 (BRD2-BD2 [2]) [µM] | EC50 (MV-4-11) [µM] | EC50 [6] [µM] | EC50 (HDMB03 cells) [µM] | also measured |
| --- | --- | --- | --- | --- | --- | --- | --- | --- | --- | --- | --- | --- | --- | --- | --- | --- | --- | --- | --- | --- | --- |
| CC(=O)N1c2ccc(-c3cccs3)cc2[C@H](NC(=O)OC(C)C)C[C@@H]1C [compound 52] | 1.68 | 1.2 | 3 | 0.34 | > 77.8 | -9.52 | -8.27 | -1.25 | 0.0613 | 2.9 | -10.12 | -7.18 |  |  |  |  |  |  |  |  | BD1/BD2 (BRD2-BD2 [2]): 5; −TΔS (BRD2-BD2 [5]): -2.94 kcal/mol; Kd (BRD2-BD2 [5]): 0.0209 µM |
| CCCNc1cccc(-c2ccc3c(c2)[C@H](Nc2ccc(C(=O)OC)cc2)C[C@H](C)N3C(C)=O)c1 [compound 46] |  |  |  |  |  |  |  |  |  |  |  |  | 1.3 | 2.6 | 1 | 7.6 | 0.17 | 0.018 | 0.34 | 0.35 |  |
| CC(=O)N1c2ccc(-c3ccsc3)cc2[C@H](NC(=O)OC(C)C)C[C@@H]1C [compound 53] | 7.21 | 3.1 | 4.6 | 0.97 | 14 | -9.43 | -7.69 | -1.74 | 0.0717 | 4.2 | -10.25 | -6.92 |  |  |  |  |  |  |  |  | BD1/BD2 (BRD2-BD2 [2]): 7; −TΔS (BRD2-BD2 [5]): -3.33 kcal/mol; Kd (BRD2-BD2 [5]): 0.0171 µM |
| CC(=O)N1c2ccc(-c3ccc[nH]3)cc2[C@H](NC(=O)OC(C)C)C[C@@H]1C [compound 54] | 1.55 | 5.6 | 8.5 | > 48.6 | 1.7 | -9.08 | -6.90 | -2.18 | 0.131 | 3.7 | -9.82 | -6.89 |  |  |  |  |  |  |  |  | −TΔS (BRD2-BD2 [5]): -2.92 kcal/mol; Kd (BRD2-BD2 [5]): 0.0359 µM |
| CCCCNc1cccc(-c2ccc3c(c2)[C@H](Nc2ccc(C(=O)OC)cc2)C[C@H](C)N3C(C)=O)c1 [compound 45] |  |  |  |  |  |  |  |  |  |  |  |  | 2.6 | 7.3 | 2.1 | 16.25 | 0.16 | 0.083 | 0.38 | 0.56 |  |
| CCCCCNc1cccc(-c2ccc3c(c2)[C@H](Nc2ccc(C(=O)OC)cc2)C[C@H](C)N3C(C)=O)c1 [compound 44] |  |  |  |  |  |  |  |  |  |  |  |  | 2.7 | 7.4 | 2.1 | 22.5 | 0.12 | 0.035 | 0.3 | 0.39 |  |
| CC(=O)N1c2ccc(-c3cc[nH]c3)cc2[C@H](NC(=O)OC(C)C)C[C@@H]1C [compound 55] | 1.71 | 0.26 | 1.2 | 0.37 | 1.3 | -9.28 | -7.33 | -1.95 | 0.0915 | 4.6 | -10.15 | -7.01 |  |  |  |  |  |  |  |  | IC50 (BRDT; Table 2, inhibitor potency by TR-FRET): 49 µM; BD1/BD2 (BRD2-BD2 [2]): 5; −TΔS (BRD2-BD2 [5]): -3.32 kcal/mol; Kd (BRD2-BD2 [5]): 0.0199 µM |
| COC(=O)c1ccc(N[C@@H]2C[C@H](C)N(C(C)=O)c3ccc(-c4cccc(NCc5ccoc5)c4)cc32)cc1 [compound 43] |  |  |  |  |  |  |  |  |  |  |  |  | 0.51 | 1.2 | 0.41 | 10 | 0.05 | 0.007 | 0.88 | 1.5 |  |
| COC(=O)c1ccc(N[C@@H]2C[C@H](C)N(C(C)=O)c3ccc(-c4cccc(NCCC(F)(F)F)c4)cc32)cc1 [compound 47] |  |  |  |  |  |  |  |  |  |  |  |  | 2.3 | 5.8 | 1.9 | 7.2 | 0.32 | 0.008 | 0.25 | 0.35 | Kd (BRD3(1)): 0.037 µM; Kd (BRD4(1)): 0.032 µM; 3(1)/3(2) (BRD3(2); BROMOscan KD ratio): 16.1; Kd (BRD3(2); BROMOscan, Table 10): 0.0023 µM; 4(1)/4(2) (BRD4(2); BROMOscan KD ratio): 11.4; Kd (BRD4(2); BROMOscan, Table 10): 0.0028 µM; Kd (BRD2(1)): 0.041 µM; Kd (BRDT(1)): 0.021 µM; T(1)/T(2) (BRDT(2); BROMOscan KD ratio): 2.6; Kd (BRDT(2); BROMOscan, Table 10): 0.0081 µM; [2(1)/2(2)] (BRD2(2); BROMOscan KD ratio): 8.2; Kd (BRD2(2); BROMOscan, Table 10): 0.005 µM |
